Key:
Assay in all cases: Greenhouse postemergence herbicidal effect, visual injury after 20-22 d
Assay type in all cases: in vivo
[1] = test system: giant foxtail (SETFA, Setaria faberi); conditions: Table 4
Description: (§1) Seeds of the desired test plant species were planted in a 90:10% v/v (volume/volume) mixture of PRO-MIX® BX (Premier Tech Horticulture, Quakertown, Pa., USA) and PROFILE® GREENS GRADE™ (Profile Products LLC, Buffalo Grove, Ill., USA) planting mixture, which typically has a pH of 5.2 to 6.2 and an organic matter content of at least 50 percent, in plastic pots with a surface area of 103.2 square centimeters (cm^2). In some aspects, to ensure good germination and healthy plants, a fungicide treatment and/or other chemical or physical treatment was applied. The plants were grown for 7-36 days (d) in a greenhouse with an approximate 14-hour (h) photoperiod which was maintained at about 23° C. during the day and 22° C. during the night. Nutrients and water were added on a regular basis and supplemental lighting was provided with overhead metal halide 1000-Watt lamps as necessary. The plants were employed for testing when they reached the second or third true leaf stage.
(§2) Emulsifiable concentrates of each of each pyridine carboxylate herbicide (Compound A or Compound B) were prepared at 100 grams acid equivalent per liter (g ae/L). The emulsifiable concentrates also included a safener, cloquintocet-mexyl, at 120 grams active ingredient per liter (g ai/L). An aliquot of each emulsifiable concentrate was placed in a 25 mL glass vial and diluted with an aqueous mixture of 1.25% (v/v) ACTIROB® B esterified rapeseed oil (Bayer Crop Science, Research Triangle Park, N.C., USA) or MSO® Concentrate with LECI-TECH® methylated soybean oil (Loveland Products, Loveland, Colo., USA) to obtain concentrated stock solutions at the highest application rate for each herbicide, based upon a 12 milliliter (mL) application volume at a rate of 187 liters per hectare (L/ha). The concentrated stock solutions were further diluted with an aqueous mixture of 1.25% v/v ACTIROB® B or MSO® Concentrate with LECI-TECH® to obtain stock solutions at reduced application rates for each herbicide. Spray solutions of the herbicide combinations (Compound A or Compound B plus PDS inhibitor herbicide) were prepared by adding weighed amounts or aliquots of the PDS inhibitor herbicide to the stock solutions of Compound A or Compound B to form 12-mL spray solutions in two- or three-way combinations.
(§3) The spray solutions were applied to the plant material with an overhead Mandel track sprayer equipped with 8002E nozzles calibrated to deliver 187 L/ha over an application area of 0.503 square meters (m^2) at a spray height of 18 inches ([…] centimeters (cm)) above the average plant canopy. Control plants were sprayed in the same manner with the solvent blank. All pyridine carboxylate herbicide (component a) application rates are given as “g ae/ha” and all PDS inhibitor herbicide (component b) application rates are given as “g ai/ha.”
(§4) The treated plants and control plants were placed in a greenhouse as described above and watered by sub-irrigation to prevent wash-off of the test compounds. After 20-22 d, the condition of the test plants as compared with that of the control plants was determined visually and scored on a scale of 0 to 100 percent where 0 corresponds to no injury and 100 corresponds to complete kill.

[2] = test system: Russian thistle (SASKR, Salsola kali); conditions: for visual injury: Table 1
Description: as §1, §2, §3, §4

[3] = test system: common sunflower (HELAN, Helianthus annuus)
Description: as §1, §2, §3, §4

[4] = test system: velvetleaf (ABUTH, Abutilon theophrasti)
Description: as §1, §2, §3, §4

[5] = test system: ivyleaf morningglory (IPOHE, Ipomoea hederacea)
Description: as §1, §2, §3, §4

[6] = test system: Canada thistle (CIRAR, Cirsium arvense); conditions: for visual injury: Table 1
Description: as §1, §2, §3, §4

[7] = test system: large crabgrass (DIGSA, Digitaria sanguinalis); conditions: Table 4
Description: as §1, §2, §3, §4

[8] = test system: wild buckwheat (POLCO, Polygonum convolvulus); conditions: for visual injury: Table 1
Description: as §1, §2, §3, §4

[9] = test system: kochia (KCHSC, Kochia scoparia); conditions: for visual injury: Table 1
Description: as §1, §2, §3, §4

[10] = test system: wild chamomile (MATCH, Matricaria chamomilla); conditions: for visual injury: Table 1
Description: as §1, §2, §3, §4

N#CCOC(=O)c1nc(-c2ccc3cc[nH]c3c2F)c(F)c(N)c1Cl [Compound A, cyanomethyl 4-amino-3-chloro-5-fluoro-6-(7-fluoro-1H-indol-6-yl)pyridine-2-carboxylate]
visual injury Obs ([1]; 7.5 g/ha): 70% | visual injury Obs ([1]; 10 g/ha): 70% | visual injury ([2]; 7.5 g/ha): 60% | visual injury Obs ([2]; 7.5 g/ha, Table 2): 45% | visual injury Obs ([2]; 7.5 g/ha, Table 3): 38% | visual injury Obs ([2]; 7.5 g/ha, Table 8): 55% | visual injury ([2]; 10 g/ha): 63% | visual injury Obs ([2]; 10 g/ha, Table 2): 60% | visual injury Obs ([2]; 10 g/ha, Table 3): 63% | visual injury Obs ([2]; 10 g/ha, Table 8): 58% | visual injury Obs ([2]; 15 g/ha, Table 8): 65% | visual injury Obs ([3]; 7.5 g/ha, Table 5): 83% | visual injury Obs ([3]; 7.5 g/ha, Table 6): 83% | visual injury Obs ([3]; 10 g/ha, Table 5): 88% | visual injury Obs ([3]; 10 g/ha, Table 6): 88% | visual injury Obs ([4]; 7.5 g/ha, Table 4): 68% | visual injury Obs ([4]; 7.5 g/ha, Table 5): 40% | visual injury Obs ([4]; 7.5 g/ha, Table 6): 40% | visual injury Obs ([4]; 10 g/ha, Table 4): 78% | visual injury Obs ([4]; 10 g/ha, Table 5): 48% | visual injury Obs ([4]; 10 g/ha, Table 6): 48% | visual injury Obs ([5]; 7.5 g/ha, Table 4): 3% | visual injury Obs ([5]; 7.5 g/ha, Table 5): 5% | visual injury Obs ([5]; 7.5 g/ha, Table 6): 5% | visual injury Obs ([5]; 10 g/ha, Table 4): 8% | visual injury Obs ([5]; 10 g/ha, Table 5): 0% | visual injury Obs ([5]; 10 g/ha, Table 6): 0% | visual injury ([6]; 7.5 g/ha): 30% | visual injury Obs ([6]; 7.5 g/ha, Table 3): 10% | visual injury Obs ([6]; 7.5 g/ha, Table 4): 23% | visual injury Obs ([6]; 7.5 g/ha, Table 5): 25% | visual injury Obs ([6]; 7.5 g/ha, Table 6): 25% | visual injury Obs ([6]; 7.5 g/ha, Table 7): 18% | visual injury ([6]; 10 g/ha): 40% | visual injury Obs ([6]; 10 g/ha, Table 3): 23% | visual injury Obs ([6]; 10 g/ha, Table 4): 20% | visual injury Obs ([6]; 10 g/ha, Table 5): 20% | visual injury Obs ([6]; 10 g/ha, Table 6): 20% | visual injury Obs ([6]; 10 g/ha, Table 7): 30% | visual injury Obs ([7]; 7.5 g/ha): 45% | visual injury Obs ([7]; 10 g/ha): 25% | visual injury ([8]; 7.5 g/ha): 78% | visual injury Obs ([8]; 7.5 g/ha, Table 2): 70% | visual injury Obs ([8]; 7.5 g/ha, Table 3): 88% | visual injury Obs ([8]; 7.5 g/ha, Table 5): 68% | visual injury Obs ([8]; 7.5 g/ha, Table 6): 68% | visual injury Obs ([8]; 7.5 g/ha, Table 7): 60% | visual injury Obs ([8]; 7.5 g/ha, Table 8): 63% | visual injury ([8]; 10 g/ha): 93% | visual injury Obs ([8]; 10 g/ha, Table 2): 78% | visual injury Obs ([8]; 10 g/ha, Table 3): 96% | visual injury Obs ([8]; 10 g/ha, Table 5): 70% | visual injury Obs ([8]; 10 g/ha, Table 6): 70% | visual injury Obs ([8]; 10 g/ha, Table 7): 70% | visual injury Obs ([8]; 10 g/ha, Table 8): 60% | visual injury Obs ([8]; 15 g/ha, Table 8): 63% | visual injury ([9]; 7.5 g/ha): 63% | visual injury Obs ([9]; 7.5 g/ha, Table 2): 50% | visual injury Obs ([9]; 7.5 g/ha, Table 5): 63% | visual injury Obs ([9]; 7.5 g/ha, Table 6): 63% | visual injury Obs ([9]; 7.5 g/ha, Table 7): 65% | visual injury Obs ([9]; 7.5 g/ha, Table 8): 70% | visual injury ([9]; 10 g/ha): 63% | visual injury Obs ([9]; 10 g/ha, Table 2): 58% | visual injury Obs ([9]; 10 g/ha, Table 5): 65% | visual injury Obs ([9]; 10 g/ha, Table 6): 65% | visual injury Obs ([9]; 10 g/ha, Table 7): 70% | visual injury Obs ([9]; 10 g/ha, Table 8): 70% | visual injury Obs ([9]; 15 g/ha, Table 8): 70% | visual injury ([10]; 7.5 g/ha): 20% | visual injury Obs ([10]; 7.5 g/ha, Table 2): 13% | visual injury Obs ([10]; 7.5 g/ha, Table 3): 0% | visual injury Obs ([10]; 7.5 g/ha, Table 7): 18% | visual injury Obs ([10]; 7.5 g/ha, Table 8): 8% | visual injury ([10]; 10 g/ha): 30% | visual injury Obs ([10]; 10 g/ha, Table 2): 15% | visual injury Obs ([10]; 10 g/ha, Table 3): 33% | visual injury Obs ([10]; 10 g/ha, Table 7): 30% | visual injury Obs ([10]; 10 g/ha, Table 8): 15% | visual injury Obs ([10]; 15 g/ha, Table 8): 10%

Reference: patent US20210392889A1, “COMPOSITIONS COMPRISING PYRIDINE CARBOXYLATE HERBICIDES WITH PDS INHIBITOR HERBICIDES” (Corteva Agriscience LLC, priority 2018, published 2021)
